Experimental findings from paper PMC8581430, “Peptide ligands targeting FGF receptors promote recovery from dorsal root crush injury via AKT/mTOR signaling” (Theranostics, 2021) are described below.

Assay [1] deals with primary DRG neurons. The experiment in a line: Axon growth of primary adult DRG neurons. The format is cell-based, Sprague-Dawley rat. Conditions: CH02 20 μM + Torin1 1 μM, 48 h, n = 62. The method, then: (§1) Figure 3 Effect of the CH02 peptide on axon growth and neuron survival. (A) Representative images of the CH02 peptide effect on axon growth in adult primary DRG neurons. DRG neurons were obtained from adult Sprague-Dawley rats. After 12-h of culture, neurons were stimulated with CH02 or bFGF for 48 h. Axonal outgrowth was assessed by immunocytochemistry using an antibody against β-tubulin, an axonal marker. Images were acquired from random neurons by fluorescence microscopy. Scale bars = 50 μm. (B) Quantification of the longest axon length of each neuron randomly selected in three independent experiments from (A), using Image-Pro Plus 6.0 software (n = 48 for each condition; *p < 0.05, ****p < 0.0001 by one-way ANOVA with Dunnett's test; ns, not significant; mean ± SD). (C) Representative images of the CH02 effect on axon growth in ex vivo cultured adult DRG explants. The axon is shown in fluorescence (β3-tubulin) images. Scale bars = 100 μm. (D) Quantification of axon growth of DRG explants from (C) using the Neurite-J software (n=4 for each condition; *control vs. CH02; #control vs. bFGF; *p < 0.05, **p < 0.01, ***p < 0.001, #p < 0.05, ##p < 0.01 by two-way ANOVA with Dunnett's test; ns, not significant; mean ± SEM). (E) Cell cytotoxicity assay of primary DRG neurons induced by H2O2. LDH released from damaged cell membranes was detected by an LDH assay kit. The results are expressed as the mean ± SEM (**p < 0.01 by one-way ANOVA with Dunnett's test; ns, not significant, compared with the control group). (F) Representative TUNEL staining of apoptotic neurons induced by H2O2 in the control, CH02, and FGF2 groups. Scale bars = 50 μm. Apoptotic neurons were detected by a TUNEL apoptosis assay kit. TUNEL (green); NeuN, neuronal marker (red); DAPI (blue). (G) Quantification of TUNEL-positive neurons from (F) (n = 3 for each condition; **p < 0.01 by one-way ANOVA with Dunnett's test; ns, not significant, compared with the control group). DRG neurons were obtained from adult Sprague-Dawley rats. […]

Assay [2] concerns DRG explants. As to the kind of experiment: Axon growth of ex vivo cultured adult DRG explants. The format is cell-based, Sprague-Dawley rat. Conditions: CH02 20 μM + Torin1 1 μM, 4 days, n = 4. The method, then:
as §1, with “(F) Representative TUNEL staining of apoptotic neurons induced by H2O2 in the control, CH02, and FGF2 groups. Scale bars = 50 μm.” left out, “TUNEL (green); NeuN, neuronal marker (red); DAPI (blue).” left out, “group).” for “group). DRG neurons were obtained from adult Sprague-Dawley rats.”
DRG explants were harvested from adult Sprague-Dawley rats (220-250 g) and placed in a 3.5 cm dish containing 2 mL of ice-cold neurobasal medium supplemented with 1 × B27, 4 mM Glutamax and 3× penicillin/streptomycin (Pen/Strep). […] After 7 days of culture, axon growth was measured. […]

Assay [3] deals with dorsal root injury (DRI) model. The experiment in a line: Plantar test after dorsal root crush injury. It is filed as in vivo, Sprague-Dawley rat. As to conditions: rats after C5-T1 dorsal root crush, up to 8 weeks, n = 5. The method, then:
(§2) Animals were anesthetized by intraperitoneal injection of pentobarbital sodium (40 mg/kg body weight) and local injection of 0.5% lidocaine. Under sterile conditions, a skin incision between the C4 and T2 spinous processes was made using a no. 10 scalpel blade. Subsequent surgeries were performed under a stereomicroscope. The muscles attached to the lamina were separated and removed using a surgical blade and microscissors to expose the lamina. A right hemilaminectomy on the C5-T1 vertebrae was performed using a fine rongeur to expose the right C5-T1 DRGs and associated dorsal roots. After dura mater opening, a concurrent C5 -T1 dorsal root crush injury was performed using no. 7 forceps. The tines of the forceps were inserted above and below the root, halfway between the dorsal root ganglia and DREZ. Each root was crushed three times, five times each, to ensure that the dorsal roots were crushed to sever all the axons within the root completely. […]
Animals treated with CH02 or FGF2 (n = 5 animals per group) were assessed using the following behavioral tests:
Animals were acclimated to the testing room for at least 60 min before baseline testing, conducted before any surgical procedure. After dorsal root crush injuries, temperature sensation was measured twice a week for 8 weeks. […] Simultaneously, the paw withdrawal latency was recorded. […]

Assay [4] concerns dorsal root injury (DRI) model. The experiment in a line: Von Frey test after dorsal root crush injury. It is filed as in vivo, Sprague-Dawley rat. As to conditions: rats after C5-T1 dorsal root crush, up to 8 weeks, n = 5. The method, then:
as §2, with “DREZ.” for “DREZ. Each root was crushed three times, five times each, to ensure that the dorsal roots were crushed to sever all the axons within the root completely.”
Animals treated with CH02 or FGF2 (n = 5 animals per group) were assessed using the following behavioral tests: […]
After an acclimation period, the animal was stimulated using a Von Frey-type 0.5 mm filament, which was placed below the center of the plantar surface of the tested paw with increasing pressure. On every test day, each foot (left front and right front) was measured 5 times at 5-min intervals, and the number of paw withdrawals was recorded.

Take `CCC(=O)N1CCN(c2ccc(-n3c(=O)ccc4cnc5ccc(-c6cnc7ccccc7c6)cc5c43)cc2C(F)(F)F)CC1` [Torin1]: in assay [1], the “effect of mTOR inhibitor on CH02-promoted axon growth, primary neurons” value was “greatly reduced the effect of the CH02 peptide in promoting axon growth”. In addition, the “effect of mTOR inhibitor on CH02-promoted axon growth, DRG explants” value in assay [2] is “greatly reduced the effect of the CH02 peptide in promoting axon growth”.

For FGF2, the thermal sensation recovery entry in assay [3] was “significantly improved”. Moreover, in assay [4], the pressure sensation recovery result is on record as “significantly improved”.
